The target in one assay is T1, IGF1R tyrosine kinase (Homo sapiens, UniProt P08069).
T1 construct: 6×His- or GST-tagged kinase domain fragments of the corresponding RTKs expressed in baculovirus system; host or cells: baculovirus system
Kind of assay: IGF1R tyrosine kinase assay (Kinase-Glo ATP depletion or PT66/PT100 AlphaScreen). The conditions noted are these: biochemical tyrosine kinase assay. The method, boiled down: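 Recombinant His- or GST-tagged kinase domains from baculovirus were assayed with poly(Glu-Tyr, 4:1) substrate and 10 μM ATP in Tris-HCl pH 7.5 with Mg2+/Mn2+. Kinase-Glo: 37° C for 60 minutes, residual ATP read by luminescence. IC50 from non-linear regression over eight concentrations, 1 nM to 20 μM.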

A further assay deals with T2, IGF1 receptor (Homo sapiens, UniProt P08069).
T2 construct: MCF7 human breast cancer cells expressing IGF1 receptor; endogenous in cells; host or cells: MCF7 human breast cancer cells
T2 sequence (P08069 741-1367 limits assumed): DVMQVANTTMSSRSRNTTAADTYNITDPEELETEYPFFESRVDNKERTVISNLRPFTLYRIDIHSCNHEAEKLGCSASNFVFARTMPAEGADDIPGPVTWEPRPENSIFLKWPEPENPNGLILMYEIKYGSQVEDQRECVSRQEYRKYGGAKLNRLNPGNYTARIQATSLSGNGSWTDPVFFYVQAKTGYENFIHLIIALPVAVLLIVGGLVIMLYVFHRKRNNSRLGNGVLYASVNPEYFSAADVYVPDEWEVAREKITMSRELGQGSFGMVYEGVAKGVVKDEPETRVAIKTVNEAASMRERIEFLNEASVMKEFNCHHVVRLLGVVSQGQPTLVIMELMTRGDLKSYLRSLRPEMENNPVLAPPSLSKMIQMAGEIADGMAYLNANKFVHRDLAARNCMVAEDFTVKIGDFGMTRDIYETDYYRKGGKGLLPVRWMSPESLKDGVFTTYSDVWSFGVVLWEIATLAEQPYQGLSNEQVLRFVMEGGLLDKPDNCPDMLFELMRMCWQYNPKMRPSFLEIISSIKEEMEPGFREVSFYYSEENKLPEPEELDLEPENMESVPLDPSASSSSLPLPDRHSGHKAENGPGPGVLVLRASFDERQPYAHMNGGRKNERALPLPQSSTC
T2 sequence (P08069 31-736 partner limits assumed): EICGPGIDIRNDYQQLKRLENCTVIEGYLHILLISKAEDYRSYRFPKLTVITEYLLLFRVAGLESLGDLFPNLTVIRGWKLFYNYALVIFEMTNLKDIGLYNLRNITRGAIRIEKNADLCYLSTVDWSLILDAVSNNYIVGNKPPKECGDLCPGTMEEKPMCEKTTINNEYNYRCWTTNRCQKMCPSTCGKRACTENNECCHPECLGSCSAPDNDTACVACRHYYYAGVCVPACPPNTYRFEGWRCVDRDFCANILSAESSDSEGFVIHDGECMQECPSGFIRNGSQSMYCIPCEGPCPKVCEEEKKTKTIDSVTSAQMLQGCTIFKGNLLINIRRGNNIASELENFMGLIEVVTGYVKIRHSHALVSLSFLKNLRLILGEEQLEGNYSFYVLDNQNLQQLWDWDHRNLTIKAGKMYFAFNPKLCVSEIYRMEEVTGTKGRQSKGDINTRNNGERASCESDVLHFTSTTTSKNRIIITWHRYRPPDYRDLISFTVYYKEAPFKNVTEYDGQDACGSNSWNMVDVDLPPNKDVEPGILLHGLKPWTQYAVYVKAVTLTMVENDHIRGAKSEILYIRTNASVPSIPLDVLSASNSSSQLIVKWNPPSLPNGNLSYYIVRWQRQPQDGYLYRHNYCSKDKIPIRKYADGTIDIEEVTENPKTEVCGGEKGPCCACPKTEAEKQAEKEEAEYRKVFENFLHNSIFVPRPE
Briefly: ELISA-based assay of IGF1 receptor autophosphorylation inhibition in cells. It is filed as cell-based. The conditions noted are these: IGF1R phosphorylation inhibition in MCF7 cells. Here is the method:
In another embodiment, compounds that interact with the IGF1R kinase domain are tested in a cell-based assay system. In accordance with this embodiment, cells expressing a full-length IGF1 receptor or a fragment thereof containing the IGF1R kinase domain, are contacted with a candidate or a control compound and the ability of the compound to block tyrosine kinase activity of IGF1R within a cell is determined. This assay may be used to screen a single compound or a large library of candidate compounds. Typically, the cells or cell lines are of mammalian origin and they can express the IGF1 receptor, or functional IGF1R kinase domain fragment, endogenously or be genetically engineered to express the IGF1R, or functional fragment thereof. The ability of the candidate compound to inhibit IGF1R kinase activity can be determined by methods known to those skilled in the art. For example, the inhibition can be determined by ELISA-type assay or Western blot analysis with cell lysates or immunoprecipitated IGF1R receptor using various anti-IGF1R and anti-phosphotyrosine antibodies.
In general, cells expressing IGF1R are treated with modulators (i.e., inhibitors or activators) of IGF1R kinase activity and cell lysates are produced from these treated cells. IGF1Rs are isolated from the lysate by immunoprecipitation and analyzed for phosphotyrosine content. Alternatively, or in addition, cellular protein substrates phosphorylated by IGFR may be immunoprecipitated from the lysates and their degree of tyrosine phosphorylation determined.
MCF7 human breast cancer cells expressing IGF1 receptor or an engineered […] fibroblast cell line NIH 3T3 overexpressing full-length IGF1R are an exemplary cellular models in which to perform such assays. Such cells may be maintained in DMEM medium supplemented with 10% fetal bovine serum (FBS), 4% L-glutamine, 1% antibiotic solution (penicillin-Streptomycin) in a humidified atmosphere of 95% air and 5% CO2 at 37° C. Confluent cells in T175 cell culture flasks are incubated overnight with serum-free DMEM medium. After the serum starvation step, the cells are detached and split into a standard 96-well cell culture plate (one T175 flask per plate, 30 μl of cell suspension per plate well). Tested inhibitors from their 10 mM stock solutions in DMSO are subsequently added at various concentrations in serum-free DMEM medium for 1 hour incubation at 37° C. in CO2-incubator; total DMSO concentration in both treated and control wells is adjusted to 1%. Cells are then stimulated for 10 minutes with 100 nM IGF-1 added in 30 μl DMEM. After treatment, cells are lysed by addition of 30 μl of 4× lysis buffer (phosphate-buffered saline (PBS), 2% Triton-X100, 1 mM phenylmethylsulphonyl fluoride (PMSF) and 8 mM activated orthovanadate), mixing and incubation for 15 minute at room temperature. To prepare assay plates, 96-well ELISA Plates (Pierce Chemical, Reacti-bind plates) were coated by goat-anti-rabbit Fc antiserum by adding 0.25 μg antiserum per well in 0.2M sodium bicarbonate buffer per well and incubating overnight at 4° C. After incubation, the plate is washed three times by PBS with 0.02% Tween-20, supplied with 25 ng/50 μl per well of anti-IGF1R antibody (C-20, Santa Cruz Biotechnology) and incubated for several hours to overnight. Prior to the addition of the prepared cellular lysates, the antibody solution is aspirated, wells washed with PBS and supplied with 25 μl per well of Starting Block buffer (Pierce Chemical).
To measure tyrosine phosphorylation of the beta-subunits of the IGF1R, 25-50 μl of the lysates are transferred from the stimulation plate to the wells of the prepared assay plate and incubated overnight at 4° C. The wells are washed with PBS with 0.02% Tween-20, incubated with 50 μl of 1:3000 dilution of anti-phosphotyrosine 4G10-HRP antibody conjugate (Upstate Biotechnology) for 2 hours at room temperature and washed again. […]
Background: ELISA stands for enzyme-linked immunosorbent assay.

The structures appear in SMILES notation.

T1 sequence (P08069 999-1274 limits assumed): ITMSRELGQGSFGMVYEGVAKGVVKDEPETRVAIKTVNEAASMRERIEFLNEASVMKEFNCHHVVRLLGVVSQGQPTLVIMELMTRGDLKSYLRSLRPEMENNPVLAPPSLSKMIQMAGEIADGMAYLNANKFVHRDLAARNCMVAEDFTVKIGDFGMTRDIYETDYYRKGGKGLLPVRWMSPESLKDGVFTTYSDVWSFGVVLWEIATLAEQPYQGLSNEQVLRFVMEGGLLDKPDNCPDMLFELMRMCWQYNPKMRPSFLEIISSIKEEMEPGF

For `Cc1c(Cl)cccc1OC[C@H](O)CNc1cc[nH]c(=O)c1-c1nc2cc3c(cc2[nH]1)C(=O)N(C1CCN(C)CC1)C3=O` [compound 94], the values for the IC50 against IGF1R tyrosine kinase and at IGF1 receptor were under 0.5 µM and 0.5 to 5 µM, respectively.

For `Cc1ccc(OC[C@H](O)CNc2cc[nH]c(=O)c2-c2nc3c(C)c4c(cc3[nH]2)C(=O)N(C2CCN(C)CC2)C4=O)c(C)c1` [compound 110], the IC50 – broadly, the concentration needed to halve the response being measured – was under 0.5 µM at IGF1R tyrosine kinase and 5 to 15 µM at IGF1 receptor.

`CN1CCC(N2C(=O)c3cc4nc(-c5c(NC[C@@H](O)COc6cccc(C(F)(F)F)c6)cc[nH]c5=O)[nH]c4cc3C2=O)CC1` [compound 97]: the IC50 on IGF1R tyrosine kinase and on IGF1 receptor was 0.5 to 5 µM in each case.

For the compound `Cc1cc(C)n(C[C@H](O)CNc2cc[nH]c(=O)c2-c2nc3cc4c(cc3[nH]2)C(=O)N(C2CCN(C)CC2)C4=O)n1` [compound 92], the IC50 at IGF1R tyrosine kinase lay within 5 to 15 µM; against IGF1 receptor, 0.5 to 5 µM.

As to `Cc1ccc(OC[C@@H](O)CNc2cc[nH]c(=O)c2-c2nc3cc4c(cc3[nH]2)C(=O)N([C@@H]2CCN(C)C2)C4=O)c(C)c1` [compound 107], the values for the IC50 against IGF1R tyrosine kinase and on IGF1 receptor were under 0.5 µM and 5 to 15 µM, respectively.

For `Cc1ccc(OC[C@H](O)CNc2cc[nH]c(=O)c2-c2nc3cc4c(cc3[nH]2)C(=O)N(C2CCN(C)CC2)C4=O)cc1Cl` [compound 99], the 50% inhibitory concentration (IC50) on IGF1R tyrosine kinase was under 0.5 µM; at IGF1 receptor it was over 15 µM.

`CCN1CCC(N2C(=O)c3cc4nc(-c5c(NC[C@@H](O)COc6ccc(C)cc6C)cc[nH]c5=O)[nH]c4cc3C2=O)CC1` [compound 143]: the IC50 on IGF1R tyrosine kinase and against IGF1 receptor was under 0.5 µM in each case.

Regarding `CN1CCC(N2C(=O)c3cc4nc(-c5c(NC[C@@H](O)COc6cccc(Cl)c6F)cc[nH]c5=O)[nH]c4cc3C2=O)CC1` [compound 96], the IC50 was in the range of 0.5 to 5 µM on IGF1R tyrosine kinase and 5 to 15 µM against IGF1 receptor.

As to `Cc1ccc(Cl)c(C)c1OC[C@H](O)CNc1cc[nH]c(=O)c1-c1nc2cc3c(cc2[nH]1)C(=O)N(C1CCN(C)CC1)C3=O` [compound 111], the results for the IC50 on IGF1R tyrosine kinase and against IGF1 receptor were 0.5 to 5 µM and over 15 µM, respectively.

With `Cc1cc(C)c(OC[C@H](O)CNc2cc[nH]c(=O)c2-c2nc3cc4c(cc3[nH]2)C(=O)N(C2CCN(C)CC2)C4=O)c(CS(C)(=O)=O)c1` [compound 84], the IC50 at IGF1R tyrosine kinase and against IGF1 receptor was 0.5 to 5 µM throughout.

Turning to `CN1CCC(N2C(=O)c3cc4nc(-c5c(NC[C@@H](O)COc6cccc(OC(F)(F)C(F)F)c6)cc[nH]c5=O)[nH]c4cc3C2=O)CC1` [compound 91], the figures for the IC50 on IGF1R tyrosine kinase and on IGF1 receptor were 5 to 15 µM and 0.5 to 5 µM, respectively.

As to `Cc1ccc(OC[C@@H](O)CNc2cc[nH]c(=O)c2-c2nc3cc4c(cc3[nH]2)C(=O)N(C2CCN(C)CC2)C4=O)c(C)c1` [compound 64], the half-maximal inhibitory concentration (IC50) is under 0.5 µM at IGF1R tyrosine kinase and over 15 µM against IGF1 receptor.

Turning to `CCc1cc(C)ccc1OC[C@H](O)CNc1cc[nH]c(=O)c1-c1nc2cc3c(cc2[nH]1)CN(C1CCN(C)CC1)C3=O` [compound 141], the IC50 on IGF1R tyrosine kinase is under 0.5 µM; at IGF1 receptor it was 0.5 to 5 µM.

Regarding `Cc1ncsc1CCN1C(=O)c2cc3nc(-c4c(NC[C@@H](O)c5cccc(Cl)c5)cc[nH]c4=O)[nH]c3cc2C1=O` [compound 32], the IC50 at IGF1R tyrosine kinase and against IGF1 receptor was 5 to 15 µM throughout.

Take `C[C@H](O)CN1C(=O)c2cc3nc(-c4c(NC[C@@H](O)c5cccc(Cl)c5)cc[nH]c4=O)[nH]c3cc2C1=O` [compound 31]: the concentration for half-maximal inhibition (IC50) on IGF1R tyrosine kinase and on IGF1 receptor was 5 to 15 µM each time.

With `O=C1c2cc3nc(-c4c(NC[C@@H](O)c5cccc(Cl)c5)cc[nH]c4=O)[nH]c3cc2C(=O)N1[C@@H]1CN2CCC1CC2` [compound 33], the values for the IC50 against IGF1R tyrosine kinase and at IGF1 receptor were under 0.5 µM and over 15 µM, respectively.

`CN1CCC(N2C(=O)c3cc4nc(-c5c(NC[C@@H](O)COc6ccc7ccccc7c6)cc[nH]c5=O)[nH]c4cc3C2=O)CC1` [compound 88]: the IC50 on IGF1R tyrosine kinase and on IGF1 receptor was 0.5 to 5 µM throughout.

With `Cc1ccc(OC[C@H](O)CNc2cc[nH]c(=O)c2-c2nc3cc4c(cc3[nH]2)C(=O)N(C2CCNCC2)C4=O)c(C)c1` [compound 142], the IC50 against IGF1R tyrosine kinase and at IGF1 receptor was under 0.5 µM each time.

For the compound `CN1CCC(N2C(=O)c3cc4nc(-c5c(N[C@H](CO)Cc6c[nH]cn6)cc[nH]c5=O)[nH]c4cc3C2=O)CC1` [compound 2], the IC50 on IGF1R tyrosine kinase and at IGF1 receptor was over 15 µM in each case.

Take `O=C1c2cc3nc(-c4c(NC[C@@H](O)c5cccc(Cl)c5)cc[nH]c4=O)[nH]c3cc2C(=O)N1C[C@@H]1CCCO1` [compound 29]: the IC50 against IGF1R tyrosine kinase and against IGF1 receptor was over 15 µM each time.

As for `Cc1ccc(OC[C@@H](O)CNc2cc[nH]c(=O)c2-c2nc3cc4c(cc3[nH]2)C(=O)N([C@H]2CCN(C)C2)C4=O)c(C)c1` [compound 106], the concentration for half-maximal inhibition (IC50) against IGF1R tyrosine kinase was under 0.5 µM; on IGF1 receptor, 5 to 15 µM.

Consider `Cc1cc(C)c(OC[C@H](O)CNc2cc[nH]c(=O)c2-c2nc3cc4c(cc3[nH]2)C(=O)N(C2CCN(C)CC2)C4=O)c(C)c1` [compound 98], for which the IC50 is under 0.5 µM at IGF1R tyrosine kinase and 5 to 15 µM against IGF1 receptor.

With `CN1CCC(N2C(=O)c3cc4nc(-c5c(NC[C@@H](O)c6cccc(Cl)c6)cc[nH]c5=O)[nH]c4cc3C2=O)CC1` [compound 1], the IC50 against IGF1R tyrosine kinase and at IGF1 receptor was under 0.5 µM each time.

Take `CCN1CCC(N2Cc3cc4nc(-c5c(NC[C@@H](O)COc6ccc(C)cc6C)cc[nH]c5=O)[nH]c4cc3C2=O)CC1` [compound 144]: the values for the IC50 against IGF1R tyrosine kinase and on IGF1 receptor were under 0.5 µM and 0.5 to 5 µM, respectively.

Turning to `Cc1ccc(OC[C@H](O)CNc2cc[nH]c(=O)c2-c2nc3cc4c(c(C)c3[nH]2)CN(C2CCN(C)CC2)C4=O)c(C)c1` [compound 132], the IC50 against IGF1R tyrosine kinase was under 0.5 µM; against IGF1 receptor, 0.5 to 5 µM.

As for `CN1CCC(N2C(=O)c3cc4nc(-c5c(NC[C@@H](O)COc6c(F)ccc(Cl)c6F)cc[nH]c5=O)[nH]c4cc3C2=O)CC1` [compound 95], the IC50 against IGF1R tyrosine kinase is under 0.5 µM; on IGF1 receptor, 5 to 15 µM.

In the case of `Cc1ccc(OC[C@H](O)CNc2cc[nH]c(=O)c2-c2nc3c(C)c4c(cc3[nH]2)C(=O)N(C2CCN(C)CC2)C4)c(C)c1` [compound 139], the concentration for half-maximal inhibition (IC50) against IGF1R tyrosine kinase is under 0.5 µM; against IGF1 receptor, 0.5 to 5 µM.

With `Cc1ccc(OC[C@H](O)CNc2cc[nH]c(=O)c2-c2nc3c(C)c4c(cc3[nH]2)CN(C2CCN(C)CC2)C4=O)c(C)c1` [compound 140], the values for the IC50 against IGF1R tyrosine kinase and against IGF1 receptor were under 0.5 µM and 0.5 to 5 µM, respectively.

With `COc1ccc(OC[C@H](O)CNc2cc[nH]c(=O)c2-c2nc3cc4c(cc3[nH]2)C(=O)N(C2CCN(C)CC2)C4=O)c(OC)c1OC` [compound 93], the IC50 on IGF1R tyrosine kinase is under 0.5 µM; against IGF1 receptor, 0.5 to 5 µM.

As to `CN1CCC(N2C(=O)c3cc4nc(-c5c(NC[C@@H](O)COc6cccc(-c7ccccc7)c6)cc[nH]c5=O)[nH]c4cc3C2=O)CC1` [compound 89], the IC50 on IGF1R tyrosine kinase and against IGF1 receptor was 0.5 to 5 µM throughout.

On to `COc1cccc(OCC(O)CNc2cc[nH]c(=O)c2-c2nc3cc4c(cc3[nH]2)C(=O)N(C2CCN(C)CC2)C4=O)c1` (stereo not drawn) [compound 6], for which the IC50 on IGF1R tyrosine kinase was under 0.5 µM; against IGF1 receptor, 0.5 to 5 µM.

With `CC(C)(CO)CN1C(=O)c2cc3nc(-c4c(NC[C@@H](O)c5cccc(Cl)c5)cc[nH]c4=O)[nH]c3cc2C1=O` [compound 26], the IC50 was in the range of 0.5 to 5 µM against IGF1R tyrosine kinase and 5 to 15 µM on IGF1 receptor.

Consider `O=C1c2cc3nc(-c4c(NC[C@@H](O)c5cccc(Cl)c5)cc[nH]c4=O)[nH]c3cc2C(=O)N1CCc1ccncc1` [compound 28], for which the IC50 on IGF1R tyrosine kinase and at IGF1 receptor was over 15 µM in each case.

Values taken from US8063225B2, “Tricyclic compound derivatives useful in the treatment of neoplastic diseases, inflammatory disorders and immunomodulatory disorders” (Chembridge Corporation, priority 2006, dated 2011).
